Columns and labels:
Format in all cases: cell-based
ACHN = test: NCI one-dose SRB growth assay; conditions: Homo sapiens; ACHN (Renal Cancer), 10^-5 M, 48 h; read-out: % Growth Inhibition (GI %)
How it was run: (§1)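 Growth percentage versus untreated controls was derived from SRB protein-dye absorbance after cells were incubated 48 h with test compound at a single 10^-5M dose.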

CAKI-1 = test: NCI one-dose SRB growth assay; conditions: Homo sapiens; CAKI-1 (Renal Cancer), 10^-5 M, 48 h; read-out: % Growth Inhibition (GI %)
How it was run: as §1

DU-145 = test: NCI one-dose SRB growth assay; conditions: Homo sapiens; DU-145 (Prostate Cancer), 10^-5 M, 48 h; read-out: % Growth Inhibition (GI %)
How it was run: as §1

HCT-116 [1] = test: NCI one-dose SRB growth assay; conditions: Homo sapiens; HCT-116 (Colon Cancer), 10^-5 M, 48 h; read-out: % Growth Inhibition (GI %)
How it was run: as §1

HT29 = test: NCI one-dose SRB growth assay; conditions: Homo sapiens, HT-29; HT29 (Colon Cancer), 10^-5 M, 48 h; read-out: % Growth Inhibition (GI %)
How it was run: as §1

MALME-3M = test: NCI one-dose SRB growth assay; conditions: Homo sapiens; MALME-3M (Melanoma), 10^-5 M, 48 h; read-out: % Growth Inhibition (GI %)
How it was run: as §1

MCF7 = test: NCI one-dose SRB growth assay; conditions: Homo sapiens; MCF7 (Breast Cancer), 10^-5 M, 48 h; read-out: % Growth Inhibition (GI %)
How it was run: as §1

MDA-MB-435 = test: NCI one-dose SRB growth assay; conditions: Homo sapiens; MDA-MB-435 (Melanoma), 10^-5 M, 48 h; read-out: % Growth Inhibition (GI %)
How it was run: as §1

NCI-H23 = test: NCI one-dose SRB growth assay; conditions: Homo sapiens; NCI-H23 (Non-Small Cell Lung Cancer), 10^-5 M, 48 h; read-out: % Growth Inhibition (GI %)
How it was run: as §1

NCI/ADR-RES [2] = test: NCI one-dose SRB growth assay; conditions: Homo sapiens; NCI/ADR-RES (Ovarian Cancer), 10^-5 M, 48 h; read-out: % Growth Inhibition (GI %)
How it was run: as §1

PC-3 = test: NCI one-dose SRB growth assay; conditions: Homo sapiens; PC-3 (Prostate Cancer), 10^-5 M, 48 h; read-out: % Growth Inhibition (GI %)
How it was run: as §1

PRMI-8226 = test: NCI one-dose SRB growth assay; conditions: Homo sapiens; PRMI-8226 (Leukemia), 10^-5 M, 48 h; read-out: % Growth Inhibition (GI %)
How it was run: as §1

SF-539 = test: NCI one-dose SRB growth assay; conditions: Homo sapiens; SF-539 (CNS Cancer), 10^-5 M, 48 h; read-out: % Growth Inhibition (GI %)
How it was run: as §1

SK-MEL-28 = test: NCI one-dose SRB growth assay; conditions: Homo sapiens; SK-MEL-28 (Melanoma), 10^-5 M, 48 h; read-out: % Growth Inhibition (GI %)
How it was run: as §1

SW-620 = test: NCI one-dose SRB growth assay; conditions: Homo sapiens; SW-620 (Colon Cancer), 10^-5 M, 48 h; read-out: % Growth Inhibition (GI %)
TK-10 [3] = test: NCI one-dose SRB growth assay; conditions: Homo sapiens; TK-10 (Renal Cancer), 10^-5 M, 48 h; read-out: % Growth Inhibition (GI %)
UACC-62 = test: NCI one-dose SRB growth assay; conditions: Homo sapiens; UACC-62 (Melanoma), 10^-5 M, 48 h; read-out: % Growth Inhibition (GI %)
How it was run: as §1

K-562 = test: NCI five-dose SRB growth assay; conditions: Homo sapiens, K562; K-562 (Leukemia), 48 h
MOLT-4 = test: NCI five-dose SRB growth assay; conditions: Homo sapiens; MOLT-4 (Leukemia), 48 h
HCT-116 [4] = test: NCI five-dose SRB growth assay; conditions: Homo sapiens; HCT-116 (Colon Cancer), 48 h
SF-268 = test: NCI five-dose SRB growth assay; conditions: Homo sapiens; SF-268 (CNS Cancer), 48 h
SNB-75 = test: NCI five-dose SRB growth assay; conditions: Homo sapiens; SNB-75 (CNS Cancer), 48 h
OVCAR-4 = test: NCI five-dose SRB growth assay; conditions: Homo sapiens; OVCAR-4 (Ovarian Cancer), 48 h
NCI/ADR-RES [5] = test: NCI five-dose SRB growth assay; conditions: Homo sapiens; NCI/ADR-RES (Ovarian Cancer), 48 h
A498 = test: NCI five-dose SRB growth assay; conditions: Homo sapiens; A498 (Renal Cancer), 48 h
TK-10 [6] = test: NCI five-dose SRB growth assay; conditions: Homo sapiens; TK-10 (Renal Cancer), 48 h
MDA-MB-231/ATCC = test: NCI five-dose SRB growth assay; conditions: Homo sapiens; MDA-MB-231/ATCC (Breast Cancer), 48 h
HS 578T = test: NCI five-dose SRB growth assay; conditions: Homo sapiens; HS 578T (Breast Cancer), 48 h
T-47D = test: NCI five-dose SRB growth assay; conditions: Homo sapiens, T47D; T-47D (Breast Cancer), 48 h

Compound	inhibition at 10 µM (ACHN)	inhibition at 10 µM (CAKI-1)	inhibition at 10 µM (DU-145)	inhibition at 10 µM (HCT-116 [1])	inhibition at 10 µM (HT29)	inhibition at 10 µM (MALME-3M)	inhibition at 10 µM (MCF7)	inhibition at 10 µM (MDA-MB-435)	inhibition at 10 µM (NCI-H23)	inhibition at 10 µM (NCI/ADR-RES [2])	inhibition at 10 µM (PC-3)	inhibition at 10 µM (PRMI-8226)	inhibition at 10 µM (SF-539)	inhibition at 10 µM (SK-MEL-28)	inhibition at 10 µM (SW-620)	inhibition at 10 µM (TK-10 [3])	inhibition at 10 µM (UACC-62)	GI50 (K-562)	GI50 (MOLT-4)	GI50 (HCT-116 [4])	further results
CCn1cc(C(=O)O)c(=O)c2cc(F)c(N3CCN(S(=O)(=O)c4ccc(Cl)cc4)CC3)cc21 [Compound 1a]	71.3%	56.4%	68.3%	95.2%	92.1%	76.2%	85.7%	74.9%	> 100%	31.3%	74.7%	86.6%	78.3%	55.4%	76%	46.4%	78.5%	2.91 µM	3.83 µM	3.18 µM	GI50 (SF-268): 3.85 µM; GI50 (SNB-75): 2.6 µM; GI50 (OVCAR-4): 2.2 µM; GI50 (NCI/ADR-RES [5]): 2.98 µM; GI50 (A498): 1.81 µM; GI50 (TK-10 [6]): 3.73 µM; GI50 (MDA-MB-231/ATCC): 2.51 µM; GI50 (HS 578T): 4.52 µM; GI50 (T-47D): 3.2 µM
CCn1cc(C(=O)O)c(=O)c2cc(F)c(N3CCN(S(=O)(=O)c4cccc5ccccc45)CC3)cc21 [Compound 7a]	> 100%	99.1%	81.1%	94.5%	96%	> 100%	85.4%	88.6%	99.9%	78.7%	92.2%	93.5%	82.6%	40.8%	77.2%	74%	68.8%	3.93 µM	4.46 µM	3.88 µM	GI50 (SF-268): 4.39 µM; GI50 (SNB-75): 1.89 µM; GI50 (OVCAR-4): 2.6 µM; GI50 (NCI/ADR-RES [5]): 3.2 µM; GI50 (A498): 2.74 µM; GI50 (TK-10 [6]): 7.6 µM; GI50 (MDA-MB-231/ATCC): 1.91 µM; GI50 (HS 578T): 2.68 µM; GI50 (T-47D): 3.35 µM
